Data published in PubChem BioAssay AID1963981 (Molecular Pharmacology Branch, DTP, NCI, 2024).
Where “and” joins values, the source holds several entries; their conditions need not be identical. Equal entries are not always repeated.

Tested on: 354836-022-R-J1-PDC multicell spheroid viability
Assay: Anticancer human tumor 354836-022-R-J1-PDC patient-derived head and neck squamous cell carcinoma cell line growth inhibition [PI3K]
Details: for viability, T/C: stronger effect = lower value
Procedure, shortened: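 Spheroid viability read-out. Co-cultures contained the tumor line plus HUVEC and human MSCs. Each agent was paired with a PI3K inhibitor (inavolisib, alpelisib, duvelisib, copanlisib) across half-log dilutions starting at clinical Cmax, or at 10 microM when Cmax was unknown.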

[1] = curve of first compound, second compound 0.0316 µM
[2] = curve of first compound, second compound 0.1 µM
[3] = curve of first compound, second compound 0.316 µM
[4] = curve of first compound, second compound 1 µM
[5] = second compound 0.0316 µM, first compound 0.0316 µM
[6] = second compound 0.0316 µM, first compound 0.1 µM
[7] = second compound 0.0316 µM, first compound 0.316 µM
[8] = second compound 0.0316 µM, first compound 1 µM
[9] = second compound 0.0316 µM, first compound 3.16 µM
[10] = second compound 0.0316 µM, first compound 10 µM
[11] = second compound 0.1 µM, first compound 0.0316 µM
[12] = second compound 0.1 µM, first compound 0.1 µM
[13] = second compound 0.1 µM, first compound 0.316 µM
[14] = second compound 0.1 µM, first compound 1 µM
[15] = second compound 0.1 µM, first compound 3.16 µM
[16] = second compound 0.1 µM, first compound 10 µM
[17] = second compound 0.316 µM, first compound 0.0316 µM
[18] = second compound 0.316 µM, first compound 0.1 µM
[19] = second compound 0.316 µM, first compound 0.316 µM
[20] = second compound 0.316 µM, first compound 1 µM
[21] = second compound 0.316 µM, first compound 3.16 µM
[22] = second compound 0.316 µM, first compound 10 µM
[23] = second compound 1 µM, first compound 0.0316 µM
[24] = second compound 1 µM, first compound 0.1 µM
[25] = second compound 1 µM, first compound 0.316 µM
[26] = second compound 1 µM, first compound 1 µM
[27] = second compound 1 µM, first compound 3.16 µM
[28] = second compound 1 µM, first compound 10 µM
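Note: spheroids exposed to agents for seven days before the viability read.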

## Cn1cnc2c(F)c(Nc3ccc(Br)cc3Cl)c(C(=O)NOCCO)cc21
Compound 0.00949 µM
  viability, T/C: 90% [middle of 4 runs]
Compound 0.03 µM
  viability, T/C: 85.5% [middle of 4 runs]
Compound 0.0949 µM
  viability, T/C: 91.4% [middle of 4 runs]
Compound 0.3 µM
  viability, T/C: 74.8% [middle of 4 runs]
Compound 0.949 µM
  viability, T/C: 80.2% [middle of 4 runs]
Compound 3 µM
  viability, T/C: 58.4% [middle of 4 runs]
Curve of compound
  IC50: > 3 µM

## CCN1CCN(Cc2ccc(Nc3ncc(F)c(-c4cc(F)c5nc(C)n(C(C)C)c5c4)n3)nc2)CC1
Compound 0.00316 µM
  viability, T/C: 111% [middle of 4 runs]
Compound 0.01 µM
  viability, T/C: 94.4% [middle of 4 runs]
Compound 0.0316 µM
  viability, T/C: 98.2% [middle of 4 runs]
Compound 0.1 µM
  viability, T/C: 90% and 99.5% and 87.3% (2×)
Compound 0.316 µM
  viability, T/C: 94% [middle of 4 runs]
Curve of compound
  IC50: > 1 µM and 0.83 µM

## CNC(=O)c1ccc(N2C(=S)N(c3ccc(C#N)c(C(F)(F)F)c3)C(=O)C2(C)C)cc1F + CC(Nc1ccc2c(c1)OCCn1cc(N3C(=O)OCC3C(F)F)nc1-2)C(N)=O
Curve of first compound, second compound 0.00316 µM
  IC50: > 10 µM
Curve of first compound, second compound 0.01 µM
  IC50: > 10 µM
[1]
  IC50: > 10 µM
[2]
  IC50: > 10 µM
[3]
  IC50: > 10 µM
[4]
  IC50: > 10 µM
Second compound 0.00316 µM, first compound 0.0316 µM
  viability, T/C: 92.3%
Second compound 0.00316 µM, first compound 0.1 µM
  viability, T/C: 99%
Second compound 0.00316 µM, first compound 0.316 µM
  viability, T/C: 104%
Second compound 0.00316 µM, first compound 1 µM
  viability, T/C: 82.8%
Second compound 0.00316 µM, first compound 3.16 µM
  viability, T/C: 97.8%
Second compound 0.00316 µM, first compound 10 µM
  viability, T/C: 84.7%
Second compound 0.01 µM, first compound 0.0316 µM
  viability, T/C: 120%
Second compound 0.01 µM, first compound 0.1 µM
  viability, T/C: 88%
Second compound 0.01 µM, first compound 0.316 µM
  viability, T/C: 94.3%
Second compound 0.01 µM, first compound 1 µM
  viability, T/C: 101%
Second compound 0.01 µM, first compound 3.16 µM
  viability, T/C: 93.5%
Second compound 0.01 µM, first compound 10 µM
  viability, T/C: 84.6%
[5]
  viability, T/C: 92%
[6]
  viability, T/C: 96.7%
[7]
  viability, T/C: 83.1%
[8]
  viability, T/C: 89.4%
[9]
  viability, T/C: 87.9%
[10]
  viability, T/C: 88.2%
[11]
  viability, T/C: 90.8%
[12]
  viability, T/C: 95.2%
[13]
  viability, T/C: 94.2%
[14]
  viability, T/C: 91%
[15]
  viability, T/C: 88.7%
[16]
  viability, T/C: 85.7%
[17]
  viability, T/C: 62.9%
[18]
  viability, T/C: 79.9%
[19]
  viability, T/C: 74.1%
[20]
  viability, T/C: 67.6%
[21]
  viability, T/C: 77.6%
[22]
  viability, T/C: 67.9%
[23]
  viability, T/C: 63.5%
[24]
  viability, T/C: 57.7%
[25]
  viability, T/C: 64.3%
[26]
  viability, T/C: 58.4%
[27]
  viability, T/C: 54.3%
[28]
  viability, T/C: 53.4%

## C[C@@H](NC(=O)c1ncnc(N)c1Cl)c1ncc(C(=O)Nc2cc(C(F)(F)F)c(Cl)cn2)s1 + Cc1nc(NC(=O)N2CCCC2C(N)=O)sc1-c1ccnc(C(C)(C)C(F)(F)F)c1
[1]
  IC50: > 10 µM
[2]
  IC50: > 10 µM
[3]
  IC50: > 10 µM
[4]
  IC50: > 10 µM
Curve of first compound, second compound 3.16 µM
  IC50: > 10 µM
Curve of first compound, second compound 10 µM
  IC50: < 0.0316 µM
[5]
  viability, T/C: 103%
[6]
  viability, T/C: 78.6%
[7]
  viability, T/C: 95.9%
[8]
  viability, T/C: 87.3%
[9]
  viability, T/C: 86.6%
[10]
  viability, T/C: 60.6%
[11]
  viability, T/C: 94.6%
[12]
  viability, T/C: 95.4%
[13]
  viability, T/C: 98%
[14]
  viability, T/C: 97.2%
[15]
  viability, T/C: 96.7%
[16]
  viability, T/C: 66.2%
[17]
  viability, T/C: 77.7%
[18]
  viability, T/C: 89.7%
[19]
  viability, T/C: 86.5%
[20]
  viability, T/C: 90.8%
[21]
  viability, T/C: 89.6%
[22]
  viability, T/C: 77.8%
[23]
  viability, T/C: 65.3%
[24]
  viability, T/C: 87.1%
[25]
  viability, T/C: 76.4%
[26]
  viability, T/C: 75.3%
[27]
  viability, T/C: 78.4%
[28]
  viability, T/C: 67.7%
Second compound 3.16 µM, first compound 0.0316 µM
  viability, T/C: 53.9%
Second compound 3.16 µM, first compound 0.1 µM
  viability, T/C: 59.8%
Second compound 3.16 µM, first compound 0.316 µM
  viability, T/C: 70.1%
Second compound 3.16 µM, first compound 1 µM
  viability, T/C: 59.7%
Second compound 3.16 µM, first compound 3.16 µM
  viability, T/C: 66.5%
Second compound 3.16 µM, first compound 10 µM
  viability, T/C: 37.8%
Second compound 10 µM, first compound 0.0316 µM
  viability, T/C: 32.1%
Second compound 10 µM, first compound 0.1 µM
  viability, T/C: 38.4%
Second compound 10 µM, first compound 0.316 µM
  viability, T/C: 37.8%
Second compound 10 µM, first compound 1 µM
  viability, T/C: 39.2%
Second compound 10 µM, first compound 3.16 µM
  viability, T/C: 36.1%
Second compound 10 µM, first compound 10 µM
  viability, T/C: 16.7%
